The values that follow come from US9408906B2, “Peptide particle formulation” (FLOW PHARMA, INC., priority 2010, dated 2016).

This experiment relates to Mature dendrocytes mixed with T-Lymphocytes. Nature of the experiment: Antigen presentation and T cell stimulation: production of human γ-IFN measured by ELISA. It counts as cell-based. Particulars: human γ-IFN production after 2 hours incubation; HLA-A02 CMV-exposed donor PBMC-derived dendrocytes + T-lymphocytes; free peptide at 10^−9 M or 15 micron PLGA microspheres with approximately 2% NLVPMVATV
From the text:
Preparation of Dendritic Cells from peripheral blood mononuclear cells (PBMC). Frozen PBMC cells were obtained from Cellular Technology Limited, from volunteer donors known to have been exposed to CMV, and to be HLA-A02. The volunteer's antigen presenting cells were known to be capable of presenting HCMV pp 65 (NLVPMVATV) CMV epitope to T lymphocytes. Human PBMC (Peripheral Blood Mononuclear Cells) isolated from leukopacks and frozen in serum-free CTL-Cryo™ medium. These leukopacks were ethically collected from healthy donors tested for: HBsAg, HBcAb, HCV, HTLV I/II, and STS by serology; as well as HIV I, HCV, and WNV by NAT.
Cells were thawed and plated at a concentration of 1×10^5 monocytes/well of a 24-well plate in medium supplemented with GM-CSF at a final concentration of 50 ng/ml and IL-4 at a final concentration of 100 ng/ml. Cells were maintained in culture at 37° C./5% CO2 for 6 days; and used with 8 days after that point. Optical microscopy confirmed maturation of monocytes to dendrocytes capable of phagocytosis of 15 micron PLGA microspheres.
Presentation of antigen and stimulation of T cells was assessed by production of human γ-IFN, measured by ELISA. […] Production of γ-IFN was measured after 2 hours.

Regarding NLVPMVATV [free peptide], the “ELISA Optical Density” value was found to be 0.612.
